{"source": "patent US20250154467A1", "about": "“CREATION OF VASCULARIZED BIOLOGICAL STRUCTURES” (The Board of Trustees of the Leland Stanford Junior …, priority 2022, published 2025)", "key": {"RUES-GLR hESCs": {"system": "RUES-GLR hESCs", "test": "Germ layer formation under different CHIR concentrations", "type": "cell-based, human", "settings": "CHIR 4 uM added at day 0, day 6"}, "hESC-3R colony": {"system": "hESC-3R colony", "test": "3D cVO creation in 96-well plate with a range of CHIR", "type": "cell-based, human", "settings": "3D cVOs, day 14, CHIR 6.0-8.5 uM", "description": "For 3D cVO creation, two methods were used. In the first method, stencils with single 2 mm center holes were placed in 24-well plates with Softwell Easy Coat hydrogels with a custom stiffness of 16 […]) and hESC-3R cells were micropatterned as described above. In the second method, to increase throughput and eliminate using stencils, each well of a black 96-well plate ([…]-32EA, Sigma-Aldrich) was freshly coated with a central, 2 uL drop of Matrigel (1:400 dilution) and was then seeded with 125,000 hESC-3R cells. Cells were allowed to attach and grow for 2-4 days forming a single, homogenous, round colony in the center of each well. The same differentiation protocol for 2D cVOs was then used to create 3D cVOs from days 0-14, using a range of CHIR from 6.0-8.5 μM."}, "hESC-3R micropatterns [1]": {"system": "hESC-3R micropatterns", "test": "cVO differentiation screening, 34 conditions, CM/EC/SMC total fluorescence area", "type": "cell-based, human", "excerpt": "Cardiac Vascularized Organoid (cVO) Differentiation. See FIG. 3C, FIG. 10H-I, and Table 1 for an overview of our thirty-four (34) cardiovascular (CV) differentiation screening conditions to produce cVOs. The Control groups utilized only CHIR, FGF2, and IWR. To begin, hPSCs suspended in single cells were transferred to Matrigel-coated non-micropatterned or micropatterned surfaces as described above and differentiated in RPMI-1640 media (61870, Thermo Fisher Scientific) supplemented with B27 without insulin (A1895601, Thermo Fisher Scientific) (RB-I). The CV differentiation was based on the baseline differentiation described previously to promote CM differentiation and contained several additional small molecules and growth factors to promote simultaneous endothelial and smooth muscle cell co-differentiation. On Day 0, for primarily mesoderm induction, basal medium was supplemented with 4 or 5 μM CHIR99021 (CHIR) (S2924, Selleck Chemicals) and 5 ng/ml FGF-2 (FGF2) (100-18B, PeproTech). On Day 3, for CM induction, 5 uM IWR-1 (IWR) (S7086, Selleck Chemicals) was added. On Days 5-16, to simultaneously induce endothelial cell vasculogenesis and angiogenesis along with the cardiomyocyte differentiation, we added combinations of 50 ng/ml VEGF-165 (VEGF) (Days 5, 7, 9, 11, 13) (100-20, PeproTech); 5 ng/ml FGF-2 (FGF2) (Days 7, 9, 11, 13) (100-18B, PeproTech); 10 uM SB431542 (SB) (Days 7, 9, or 11) ([…], Selleck Chemicals); 50 ng/ml Angiopoietin-2 (ANG2) (Days 5 and 7) (130-07, PeproTech); 50 ng/ml Angiopoietin-1 (ANG1) (Days 9 and 11) (130-06, PeproTech); and select components of the VascuLife® VEGF LifeFactors® Kit (Aghajanian et al., 2016) (LS-1020, Lifeline Cell Technology) (Days 5, 7, 9, 11, and 13) (5 ng/ml EGF, 15 ng/ml IGF-1, 50 μg/mL ascorbic acid, 0.75 U/mL heparin sulfate, […]). On Days 7-16, to simultaneously induce smooth muscle cell differentiation with cardiomyocyte and endothelial cell differentiation, we added 2.5 or 10 ng/ml PDGF-BB (PDGFBB) (Days 7, 9, 11, 13) (100-14B, PeproTech) and 0.5 or 2 ng/ml TGF-β1 (TGFβ) (Days 7, 9, 11, 13) (100-21C, PeproTech). To increase throughput, screening time-lapse microscopy was performed with the Cytation 5 Cell Imaging Multi-Mode Reader (BioTek). Five (5) forty-eight (48)-well plates (204 out of 240 wells) were imaged over the differentiation time-period. The plates contained a single 2 mm circular micropattern of undifferentiated hESC-3R cells in the center of each well subjected to thirty-four (34) differentiation conditions, with nominally 4-6 replicates per condition, imaged at six (6) timepoints (Days 3, 5, 8, 10, 12, and 16 (D3-D16)). After all raw images were acquired, image analysis was performed with Gen5 v3.05 software (BioTek). Images in each channel and each 4×4 array were stitched to create a single mosaic image; 4728 mosaics were created, and each mosaic image was downsized by 25%. Next, image processing of each mosaic was performed to reduce background independently in each channel. Finally, for each channel, thresholding was performed on fluorescence intensity along with minimum and maximum object size to calculate the total Phase, CFP, GFP, and mOrange total fluorescence area in each well for each condition at each timepoint. Each mosaic image was computationally masked by a circular “plug” to eliminate fluorescence artifact created by well edges. For each condition, values for replicate samples were summed, and the mean and standard deviation were calculated."}, "hESC-3R micropatterns [2]": {"system": "hESC-3R micropatterns", "test": "CHIR concentrations and VEGF addition on CM and EC co-differentiation over 14 days", "type": "cell-based, human", "settings": "day 14"}, "cVO EC formation": {"system": "cVO EC formation", "settings": "for time course of detrimental effect on EC formation (regression coefficients): multiple linear regression fit, 16 days; for effect on vascularization of cVOs: pathway inhibitors, summary; for EC location within cVO: day 16"}, "[3]": {"system": "Controls (baseline cardiomyocyte differentiation)", "test": "Beat rate with isoproterenol treatment, Controls", "type": "cell-based, human", "settings": "isoproterenol 0, 1, and 10 uM; n=15", "excerpt": "Baseline Cardiomyocyte (CM) Differentiation. For baseline cardiomyocyte (CM) differentiation (Control group), hPSCs were transferred to Matrigel-coated non-micropatterned and micropatterned surfaces as described above and differentiated in RPMI-1640 media (61870, Thermo Fisher Scientific) supplemented with B27 without insulin (A1895601, Gibco/Thermo Fisher Scientific). Our baseline differentiation method was based on a small molecule-based monolayer method (Lian et al., 2012; Burridge et al., 2014). Briefly, on the first day (Day 0) of differentiation, basal medium was supplemented with 4, 5, or 6 μM CHIR99021 (CHIR) (S2924, Selleck Chemicals) and 5 ng/mL FGF-2 (FGF2) (100-18B, PeproTech). On Day 2, the medium was replaced with basal medium containing B27 without insulin. […] We assessed the contractility of Control and cVO groups in a similar manner as we have previously described. Contraction of beating CMs within the micropatterns was recorded with high-resolution motion capture tracking (75 fps) using the SI8000 Live Cell Motion Imaging System (Sony Corporation). […] Functional parameters were assessed from the averaged contraction-relaxation waveforms from 10 sec recordings, using the S[…] […] The software was used to detect motion vectors and quantify beating rate, contraction velocity, relaxation velocity, and contraction-relaxation peak interval of cVOs."}, "cVOs": {"system": "cVOs", "test": "Beat rate with isoproterenol treatment, cVOs", "type": "cell-based, human", "settings": "isoproterenol 0, 1, and 10 uM; n=16", "excerpt": "Cardiac Vascularized Organoid (cVO) Differentiation. See FIG. 3C, FIG. 10H-I, and Table 1 for an overview of our thirty-four (34) cardiovascular (CV) differentiation screening conditions to produce cVOs. The Control groups utilized only CHIR, FGF2, and IWR. To begin, hPSCs suspended in single cells were transferred to Matrigel-coated non-micropatterned or micropatterned surfaces as described above and differentiated in RPMI-1640 media (61870, Thermo Fisher Scientific) supplemented with B27 without insulin (A1895601, Thermo Fisher Scientific) (RB-I). The CV differentiation was based on the baseline differentiation described previously to promote CM differentiation and contained several additional small molecules and growth factors to promote simultaneous endothelial and smooth muscle cell co-differentiation. […] We assessed the contractility of Control and cVO groups in a similar manner as we have previously described. Contraction of beating CMs within the micropatterns was recorded with high-resolution motion capture tracking (75 fps) using the SI8000 Live Cell Motion Imaging System (Sony Corporation). […] Functional parameters were assessed from the averaged contraction-relaxation waveforms from 10 sec recordings, using the S[…] […] The software was used to detect motion vectors and quantify beating rate, contraction velocity, relaxation velocity, and contraction-relaxation peak interval of cVOs."}, "[4]": {"settings": "CHIR 4 vs 5 uM for each condition, day 12"}}, "note": "Entries after “also recorded” stand apart in the source; their conditions may differ. Like-named read-outs stand apart in the source and are kept apart here.", "data": [{"molecule": "Cc1cnc(-c2cnc(NCCNc3ccc(C#N)cn3)nc2-c2ccc(Cl)cc2Cl)[nH]1", "note": "[CHIR, 6-[[2-[[4-(2,4-Dichlorophenyl)-5-(5-methyl-1H-imidazol-2-yl)-2-pyrimidinyl]amino]ethyl]amino]-3-pyridinecarbonitrile]", "values": [{"measurement": "germ layer formation in micropatterned RUES-GLR hESCs", "setting": "RUES-GLR hESCs", "result": "central BRA+ mesodermal area was surrounded by a SOX17+ endodermal ring and no SOX2 ectodermal expression; also recorded: BRA+ mesodermal central area surrounded by a SOX17+ endodermal ring, with no SOX2 ectodermal expression"}, {"measurement": "CHIR concentration giving the most CMs and ECs", "setting": "hESC-3R colony", "result": 7.0, "unit": "µM"}, {"measurement": "CHIR concentration giving the most CMs, ECs, and SMCs", "setting": "hESC-3R micropatterns [1]; 34 screening conditions, CHIR 4 uM vs 5 uM", "result": 5, "unit": "µM"}, {"measurement": "CHIR concentration giving the most CMs (GFP total fluorescence area)", "setting": "hESC-3R micropatterns [1]; [4]", "result": 5, "unit": "µM"}, {"measurement": "CHIR concentration giving the most ECs (mOr total fluorescence area)", "setting": "hESC-3R micropatterns [1]; [4]", "result": 5, "unit": "µM"}, {"measurement": "CHIR concentration giving the most SMCs (CFP total fluorescence area)", "setting": "hESC-3R micropatterns [1]; [4]", "result": 5, "unit": "µM"}, {"measurement": "CHIR concentration giving the most CMs", "setting": "hESC-3R micropatterns [2]; CHIR+FGF2+IWR (Control), CHIR 3, 4, and 5 uM", "result": 5, "unit": "µM"}, {"measurement": "CHIR concentration giving the most CMs and ECs", "setting": "hESC-3R micropatterns [2]; CHIR+FGF2+IWR+VEGF 50 ng/ml", "result": 5, "unit": "µM"}]}, {"molecule": "C[C@H](NC(=O)Cc1cc(F)cc(F)c1)C(=O)N[C@H](C(=O)OC(C)(C)C)c1ccccc1", "note": "[DAPT]", "values": [{"measurement": "difference in cVO EC formation between concentrations", "setting": "cVO EC formation; DAPT 1 vs 10 uM", "result": "no significant (ns) difference"}, {"measurement": "time course of detrimental effect on EC formation (regression coefficients)", "setting": "cVO EC formation", "result": "decays over time"}, {"measurement": "effect on vascularization of cVOs", "setting": "cVO EC formation", "result": "general disruptive effects on vascularization"}]}, {"molecule": "Cl.Cl.c1cc(-c2cnn3cc(-c4ccc(OCCN5CCCCC5)cc4)cnc23)ccn1", "note": "[Dorsomorphin, 6-[4-[2-(1-Piperidinyl)ethoxy]phenyl]-3-(4-pyridinyl)-pyrazolo[1,5-a]pyrimidine dihydrochloride]", "values": [{"measurement": "difference in cVO EC formation between concentrations", "setting": "cVO EC formation; Dorsomorphin 0.1 vs 1.0 uM", "result": "no significant (ns) difference"}, {"measurement": "time course of detrimental effect on EC formation (regression coefficients)", "setting": "cVO EC formation", "result": "exponentially increases"}, {"measurement": "effect on vascularization of cVOs", "setting": "cVO EC formation", "result": "general disruptive effects on vascularization"}]}, {"molecule": "CC(C)NCC(O)c1ccc(O)c(O)c1", "note": "(stereo not shown) [isoproterenol]", "values": [{"measurement": "Beat rate of Controls", "setting": "[3]", "result": "significantly increased; also recorded: increases"}, {"measurement": "Beat rate of cVOs", "setting": "cVOs", "result": "significantly increased; also recorded: increases"}]}, {"molecule": "Angiostatin", "values": [{"measurement": "EC location within cVO", "setting": "cVO EC formation; Angiostatin 0.1 ug/mL", "result": "ECs congregated in the center area of starting micropatterns"}, {"measurement": "EC location within cVO", "setting": "cVO EC formation; Angiostatin 1.0 ug/mL", "result": "ECs congregated at the periphery of starting micropatterns"}, {"measurement": "difference in cVO EC formation between concentrations", "setting": "cVO EC formation; Angiostatin 0.1 vs 1.0 ug/mL", "result": "no significant (ns) difference"}, {"measurement": "effect on vascularization of cVOs", "setting": "cVO EC formation", "result": "general disruptive effects on vascularization"}]}, {"molecule": "VEGF", "values": [{"measurement": "EC formation (mOr) compared to Control, FGF2 alone and SB alone", "setting": "hESC-3R micropatterns [1]; VEGF alone, 50 ng/ml, day 12", "result": "most ECs"}, {"measurement": "effect on CM formation (GFP)", "setting": "hESC-3R micropatterns [1]; VEGF alone, 50 ng/ml, day 12", "result": "no statistical (ns) effect"}]}]}
